Like-named read-outs stand apart in the source and are kept apart here.
What was measured:
[1] = tested on: Tg.rasH2 mice; conditions: for Incidence of lung adenoma, multiple / Incidence of lung adenoma, single / Incidence of lung carcinoma / Incidence of lung tumors, combined / Incidence of thymus, thymoma / Incidence of urethra papilloma / Incidence of Harderian gland carcinoma / Incidence of Harderian gland adenoma / Incidence of hemangiosarcoma, combined / Incidence of hemangiosarcoma, multicentric (includes abdominal skin and thoracic wall) / Incidence of hemangiosarcoma, spleen / Incidence of hemangiosarcoma, uterus / Incidence of hemangiosarcoma, vagina / Survival rate / Incidence of hemangiosarcoma, kidney / Incidence of hemangiosarcoma, spinal cord, lumbar: 26 weeks
Description: The vehicle was 0.5% carboxymethylcellulose (CMC) with 0.1% Tween 80 (v/v). The vehicle and pretomanid formulations were administered to mice by oral gavage once daily at a dosing volume of 10 mL/kg. Individual dose volumes were calculated based on each animal’s most recently recorded body weight. The dose formulations were magnetically stirred at room temperature for at least 30 minutes prior to and during dosing. The positive control was urethane in 0.9% sodium chloride and was administered via intraperitoneal injection for a total of three times. The positive control formulation was allowed to stand at room temperature for at least 30 minutes and inverted several times prior to dose administration. Aliquots (0.5 to 1.0 mL) were collected from the top, bottom, and middle of the first (week 1), interim (week 13), and last (week 25) pretomanid dose formulations to assess the accuracy of the concentration and/or homogeneity.
Male and female Tg.rasH2 [CByB6F1-Tg(HRAS)2Jic (+/−hemizygous c-Ha-ras)] mice (n = 110/sex) approximately 5 weeks of age were assigned to the main cohort groups to assess carcinogenicity. Male and female wild type CByB6F1 mice [CByB6F1-Tg(HRAS)2Jic (−/−homozygous c-Ha-ras)] (n = 34/sex) approximately 6 weeks of age were assigned to the cohort of mice used to assess the toxicokinetics of pretomanid and its M50 metabolite. […] All mice were obtained from Taconic Biosciences (Germantown, NY). The supplier verified that the mice were murine pathogen-free and females were nulliparous and non-pregnant. At the time of dosing initiation (Day 1), the toxicokinetic mice were approximately 8 weeks of age. On Day 1 of the study, the body weights of the main cohort mice ranged from 19.2 to 25.9 grams (males) and from 15.9 to 20.4 grams (females), and the body weights of the TK cohort mice ranged from 23.4 to 30.2 grams (males) and from 17.6 to 23.5 grams (females).
This study assessed the carcinogenic potential of pretomanid following repeated oral gavage administration once daily for 26 weeks in hemizygous Tg.rasH2 [CByB6F1-Tg(HRAS)2Jic (+/− hemizygous c-Ha-ras)] mice. This study also evaluated the TK profile of pretomanid and metabolite M50 in wild-type CByB6F1 [CByB6F1-Tg(HRAS)2Jic (−/−homozygous c-Ha-ras)] mice. The study was conducted under GLP regulations.
For carcinogenicity assessment (main cohort), 25 mice/sex were included in the vehicle control and pretomanid-treated groups. At the time of dosing initiation (Day 1), the main cohort mice used for assessing carcinogenicity were approximately 7 weeks of age and weighed between 15.9 to 20.4 g (females) and 19.2 to 25.9 g (males). Male groups (Groups 2, 4, and 6) received pretomanid in vehicle at doses of 5, 15, and 40 mg/kg/day, respectively. Female groups (Groups 3, 5, and 7) received pretomanid in vehicle at doses of 10, 30, and 80 mg/kg/day. Positive control mice (n = 10/sex) were included in the main cohort and received three intraperitoneal injections of urethane in saline (1000 mg/kg/injection) on Days 1, 3, and 5. The test and control articles were administered at a dose volume of 10 mL/kg body weight.
Clinical signs, body weights, and food consumption were assessed for the main cohort animals to monitor animal health and any potential toxicity from pretomanid administration. In-life measurements were recorded in Provantis™ Version 9.4.6.3 (Instem, Philadelphia, PA).
All animals, including those in the TK cohort, were observed twice daily for morbidity and mortality. For animals in the main cohort, cage side observations were performed on the day of dosing within 2 hours after the last animal in each group was dosed (Days 1, 3, and 5 for positive control animals).

[2] = tested on: mouse lymphoma cells; assay: Non-GLP in vitro mouse lymphoma assay; assay type: cell-based; conditions: concentrations up to 1000 μg/mL, data not shown
[3] = female, Tg.rasH2 [CByB6F1-Tg(HRAS)2Jic (+/- hemizygous c-Ha-ras)], mouse, in vivo, po, 10 mg/kg/day
[4] = female, Tg.rasH2 [CByB6F1-Tg(HRAS)2Jic (+/- hemizygous c-Ha-ras)], mouse, in vivo, po, 30 mg/kg/day
[5] = female, Tg.rasH2 [CByB6F1-Tg(HRAS)2Jic (+/- hemizygous c-Ha-ras)], mouse, in vivo, po, 80 mg/kg/day
[6] = female, Tg.rasH2 [CByB6F1-Tg(HRAS)2Jic, hemizygous c-Ha-ras], mouse, in vivo, po, 10 mg/kg/day
[7] = female, Tg.rasH2 [CByB6F1-Tg(HRAS)2Jic, hemizygous c-Ha-ras], mouse, in vivo, po, 30 mg/kg/day
[8] = female, Tg.rasH2 [CByB6F1-Tg(HRAS)2Jic, hemizygous c-Ha-ras], mouse, in vivo, po, 80 mg/kg/day
[9] = male, Tg.rasH2 [CByB6F1-Tg(HRAS)2Jic (+/- hemizygous c-Ha-ras)], mouse, in vivo, po, 5 mg/kg/day
[10] = male, Tg.rasH2 [CByB6F1-Tg(HRAS)2Jic (+/- hemizygous c-Ha-ras)], mouse, in vivo, po, 15 mg/kg/day
[11] = male, Tg.rasH2 [CByB6F1-Tg(HRAS)2Jic (+/- hemizygous c-Ha-ras)], mouse, in vivo, po, 40 mg/kg/day
[12] = male, Tg.rasH2 [CByB6F1-Tg(HRAS)2Jic, hemizygous c-Ha-ras], mouse, in vivo, po, 5 mg/kg/day
[13] = male, Tg.rasH2 [CByB6F1-Tg(HRAS)2Jic, hemizygous c-Ha-ras], mouse, in vivo, po, 15 mg/kg/day
[14] = male, Tg.rasH2 [CByB6F1-Tg(HRAS)2Jic, hemizygous c-Ha-ras], mouse, in vivo, po, 40 mg/kg/day

## O=[N+]([O-])c1cn2c(n1)OC[C@@H](OCc1ccc(OC(F)(F)F)cc1)C2 [Pretomanid, (6S)-2-nitro-6-{[4-(trifluoromethoxy)benzyl]oxy}-6,7-dihydro-5H-imidazo[2,1-b][1,3]oxazine]
[1]; Group 3F, female, 10 mg/kg/d
  Early death: cause of death: Multicentric hemangiosarcoma
  Early death: day of death: 184
  Early death: interpretation: Natural death
[1]; Group 5F, female, 30 mg/kg/d
  Early death: cause of death: Caught in feeder
  Early death: day of death: 7
  Early death: interpretation: Accidental
[1]; Group 7F, female, 80 mg/kg/d (two animals)
  Early death: interpretation: Natural death
[1]; [3]
  Incidence of lung adenoma, multiple: 0%
  Incidence of lung adenoma, single: 0%
  Incidence of lung carcinoma: 0%
  Incidence of lung tumors, combined: 0%
  Incidence of thymus, thymoma: 4%
  Incidence of urethra papilloma: 0%
[1]; [4]
  Incidence of Harderian gland carcinoma: 0%
  Incidence of lung adenoma, multiple: 0%
  Incidence of lung adenoma, single: 4%
  Incidence of lung carcinoma: 0%
  Incidence of lung tumors, combined: 4%
  Incidence of thymus, thymoma: 0%
  Incidence of urethra papilloma: 0%
[1]; [5]
  Incidence of Harderian gland carcinoma: 8%
  Incidence of lung adenoma, multiple: 0%
  Incidence of lung adenoma, single: 0%
  Incidence of lung carcinoma: 8%
  Incidence of lung tumors, combined: 8%
  Incidence of thymus, thymoma: 0%
  Incidence of urethra papilloma: 4%
[1]; [6]
  Incidence of Harderian gland adenoma: 0%
  Incidence of Harderian gland carcinoma: 4%
  Incidence of hemangiosarcoma, combined: 8%
  Incidence of hemangiosarcoma, multicentric (includes abdominal skin and thoracic wall): 4%
  Incidence of hemangiosarcoma, spleen: 0%
  Incidence of hemangiosarcoma, uterus: 4%
  Incidence of hemangiosarcoma, vagina: 0%
[1]; [7]
  Incidence of Harderian gland adenoma: 8%
  Incidence of hemangiosarcoma, combined: 4%
  Incidence of hemangiosarcoma, multicentric (includes abdominal skin and thoracic wall): 0%
  Incidence of hemangiosarcoma, spleen: 0%
  Incidence of hemangiosarcoma, uterus: 0%
  Incidence of hemangiosarcoma, vagina: 4%
[1]; [8]
  Incidence of Harderian gland adenoma: 0%
  Incidence of hemangiosarcoma, combined: 8%
  Incidence of hemangiosarcoma, multicentric (includes abdominal skin and thoracic wall): 0%
  Incidence of hemangiosarcoma, spleen: 8%
  Incidence of hemangiosarcoma, uterus: 0%
  Incidence of hemangiosarcoma, vagina: 0%
[1]; females, high-dose (80 mg/kg/day)
  Survival rate: 92%
[1]; females, low-dose (10 mg/kg/day)
  Survival rate: 96%
[1]; females, mid-dose (30 mg/kg/day)
  Survival rate: 100%
[1]; [9]
  Incidence of Harderian gland adenoma: 4%
  Incidence of Harderian gland carcinoma: 0%
  Incidence of hemangiosarcoma, combined: 4%
  Incidence of hemangiosarcoma, kidney: 4%
  Incidence of hemangiosarcoma, spinal cord, lumbar: 0%
  Incidence of hemangiosarcoma, spleen: 0%
[1]; [10]
  Incidence of Harderian gland adenoma: 0%
  Incidence of hemangiosarcoma, combined: 0%
  Incidence of hemangiosarcoma, kidney: 0%
  Incidence of hemangiosarcoma, spinal cord, lumbar: 0%
  Incidence of hemangiosarcoma, spleen: 0%
[1]; [11]
  Incidence of Harderian gland adenoma: 0%
  Incidence of hemangiosarcoma, combined: 12%
  Incidence of hemangiosarcoma, kidney: 0%
  Incidence of hemangiosarcoma, spinal cord, lumbar: 0%
  Incidence of hemangiosarcoma, spleen: 12%
[1]; [12]
  Incidence of lung adenoma, multiple: 0%
  Incidence of lung adenoma, single: 20%
  Incidence of lung carcinoma: 0%
  Incidence of lung tumors, combined: 20%
[1]; [13]
  Incidence of Harderian gland carcinoma: 0%
  Incidence of lung adenoma, multiple: 0%
  Incidence of lung adenoma, single: 8%
  Incidence of lung carcinoma: 0%
  Incidence of lung tumors, combined: 8%
[1]; [14]
  Incidence of Harderian gland carcinoma: 4%
  Incidence of lung adenoma, multiple: 0%
  Incidence of lung adenoma, single: 4%
  Incidence of lung carcinoma: 0%
  Incidence of lung tumors, combined: 4%
[1]; males, high-dose (40 mg/kg/day)
  Survival rate: 100%
[1]; males, low-dose (5 mg/kg/day)
  Survival rate: 100%
[1]; males, mid-dose (15 mg/kg/day)
  Survival rate: 100%
[1]; mouse, in vivo
  Incidence of hemangiosarcoma vs vehicle control: did not significantly increase
  Incidence of lung tumors vs vehicle control: did not significantly increase
  Incidence of non-vascular and non-pulmonary tumors: did not significantly increase
  Non-neoplastic microscopic findings: did not produce non-neoplastic microscopic findings
[1]; mouse, in vivo, 30 mg/kg/day
  Mean food consumption from Day 1 to 183 vs vehicle control: significantly increased
[1]; mouse, in vivo, po
  Clinical signs of toxicity: did not produce clinical signs of toxicity
  Effect on food consumption: did not affect food consumption
[2]
  Genotoxicity in mouse lymphoma assay: negative
